Experimental data taken from ChEMBL document CHEMBL3044826, “Design, synthesis and biological evaluation of some novel substituted 2-mercapto-3-phenethylquinazolines as antitumor agents” (2013).

Legend:
Format in all cases: functional
Malme-3M = test: Cytotoxicity against Homo sapiens (human) MALME-3M cells assessed as growth inhibition at 10 uM after 48 hr by coulter counter analysis; settings: read-out: GI
OVCAR-8 = test: Cytotoxicity against Homo sapiens (human) OVCAR8 cells assessed as growth inhibition at 10 uM after 48 hr by coulter counter analysis; settings: OVCAR-8, 48 h, read-out: GI
OVCAR-3 = test: Cytotoxicity against Homo sapiens (human) OVCAR3 cells assessed as growth inhibition at 10 uM after 48 hr by coulter counter analysis; settings: OVCAR-3, 48 h, read-out: GI
A549 = test: Cytotoxicity against Homo sapiens (human) A549 cells assessed as growth inhibition at 10 uM after 48 hr by coulter counter analysis; settings: A549, 48 h, read-out: GI
SF-539 = test: Cytotoxicity against Homo sapiens (human) SF539 cells assessed as growth inhibition at 10 uM after 48 hr by coulter counter analysis; settings: SF-539, 48 h, read-out: GI
SNB-19 = test: Cytotoxicity against Homo sapiens (human) SNB19 cells assessed as growth inhibition at 10 uM after 48 hr by coulter counter analysis; settings: SNB-19, 48 h, read-out: GI
MDA-MB-468 = test: Cytotoxicity against Homo sapiens (human) MDA-MB-468 cells assessed as growth inhibition at 10 uM after 48 hr by coulter counter analysis; settings: MDA-MB-468, 48 h, read-out: GI
NCI-H322M = test: Cytotoxicity against Homo sapiens (human) NCI-H322M cells assessed as growth inhibition at 10 uM after 48 hr by coulter counter analysis; settings: read-out: GI
PC-3 = test: Cytotoxicity against Homo sapiens (human) PC3 cells assessed as growth inhibition at 10 uM after 48 hr by coulter counter analysis; settings: PC-3, 48 h, read-out: GI
MCF7 = test: Cytotoxicity against Homo sapiens (human) MCF7 cells assessed as growth inhibition at 10 uM after 48 hr by coulter counter analysis; settings: MCF7, 48 h, read-out: GI
SK-OV-3 = test: Cytotoxicity against Homo sapiens (human) SKOV3 cells assessed as growth inhibition at 10 uM after 48 hr by coulter counter analysis; settings: SK-OV-3, 48 h, read-out: GI
SF-268 = test: Cytotoxicity against Homo sapiens (human) SF268 cells assessed as growth inhibition at 10 uM after 48 hr by coulter counter analysis; settings: SF-268, 48 h, read-out: GI
SK-MEL-28 = test: Cytotoxicity against Homo sapiens (human) SK-MEL-28 cells assessed as growth inhibition at 10 uM after 48 hr by coulter counter analysis; settings: SK-MEL-28, 48 h, read-out: GI
MDA-MB-231 = test: Cytotoxicity against Homo sapiens (human) MDA-MB-231 cells assessed as growth inhibition at 10 uM after 48 hr by coulter counter analysis; settings: MDA-MB-231, 48 h, read-out: GI
HCC 2998 = test: Cytotoxicity against Homo sapiens (human) HCC2998 cells assessed as growth inhibition at 10 uM after 48 hr by coulter counter analysis; settings: HCC 2998, 48 h, read-out: GI
IGROV-1 = test: Cytotoxicity against Homo sapiens (human) IGROV1 cells assessed as growth inhibition at 10 uM after 48 hr by coulter counter analysis; settings: IGROV-1, 48 h, read-out: GI
OVCAR-4 = test: Cytotoxicity against Homo sapiens (human) OVCAR4 cells assessed as growth inhibition at 10 uM after 48 hr by coulter counter analysis; settings: OVCAR-4, 48 h, read-out: GI
OVCAR-5 = test: Cytotoxicity against Homo sapiens (human) OVCAR5 cells assessed as growth inhibition at 10 uM after 48 hr by coulter counter analysis; settings: OVCAR-5, 48 h, read-out: GI
HCT-116 = test: Cytotoxicity against Homo sapiens (human) HCT116 cells assessed as growth inhibition at 10 uM after 48 hr by coulter counter analysis; settings: HCT-116, 48 h, read-out: GI
BT-549 = test: Cytotoxicity against Homo sapiens (human) BT549 cells assessed as growth inhibition at 10 uM after 48 hr by coulter counter analysis; settings: BT-549, 48 h, read-out: GI
LOX IMVI = test: Cytotoxicity against Homo sapiens (human) LOXIMVI cells assessed as growth inhibition at 10 uM after 48 hr by coulter counter analysis; settings: read-out: GI
SN12C = test: Cytotoxicity against Homo sapiens (human) SN12C cells assessed as growth inhibition at 10 uM after 48 hr by coulter counter analysis; settings: read-out: GI
HT-29 = test: Cytotoxicity against Homo sapiens (human) HT-29 cells assessed as growth inhibition at 10 uM after 48 hr by coulter counter analysis; settings: HT-29, 48 h, read-out: GI
MDA-MB-435 = test: Cytotoxicity against Homo sapiens (human) MDA-MB-435 cells assessed as growth inhibition at 10 uM after 48 hr by coulter counter analysis; settings: MDA-MB-435, 48 h, read-out: GI
U-251 = test: Cytotoxicity against Homo sapiens (human) U251 cells assessed as growth inhibition at 10 uM after 48 hr by coulter counter analysis; settings: U-251, 48 h, read-out: GI
M14 = test: Cytotoxicity against Homo sapiens (human) M14 cells assessed as growth inhibition at 10 uM after 48 hr by coulter counter analysis; settings: M14, 48 h, read-out: GI
ACHN = test: Cytotoxicity against Homo sapiens (human) ACHN cells assessed as growth inhibition at 10 uM after 48 hr by coulter counter analysis; settings: read-out: GI
SW-620 = test: Cytotoxicity against Homo sapiens (human) SW620 cells assessed as growth inhibition at 10 uM after 48 hr by coulter counter analysis; settings: SW-620, 48 h, read-out: GI
SF-295 = test: Cytotoxicity against Homo sapiens (human) SF295 cells assessed as growth inhibition at 10 uM after 48 hr by coulter counter analysis; settings: SF-295, 48 h, read-out: GI
KM12 = test: Cytotoxicity against Homo sapiens (human) KM12 cells assessed as growth inhibition at 10 uM after 48 hr by coulter counter analysis; settings: KM12, 48 h, read-out: GI
DU-145 = test: Cytotoxicity against Homo sapiens (human) DU145 cells assessed as growth inhibition at 10 uM after 48 hr by coulter counter analysis; settings: DU-145, 48 h, read-out: GI
HCT-15 = test: Cytotoxicity against Homo sapiens (human) HCT15 cells assessed as growth inhibition at 10 uM after 48 hr by coulter counter analysis; settings: HCT-15, 48 h, read-out: GI
TK-10 = test: Cytotoxicity against Homo sapiens (human) TK10 cells assessed as growth inhibition at 10 uM after 48 hr by coulter counter analysis; settings: TK-10, 48 h, read-out: GI
COLO 205 = test: Cytotoxicity against Homo sapiens (human) COLO205 cells assessed as growth inhibition at 10 uM after 48 hr by coulter counter analysis; settings: COLO 205, 48 h, read-out: GI

Row | SMILES | inhibition of growth at 10 µM (Malme-3M) | inhibition of growth at 10 µM (OVCAR-8) | inhibition of growth at 10 µM (OVCAR-3) | inhibition of growth at 10 µM (A549) | inhibition of growth at 10 µM (SF-539) | inhibition of growth at 10 µM (SNB-19) | inhibition of growth at 10 µM (MDA-MB-468) | inhibition of growth at 10 µM (NCI-H322M) | inhibition of growth at 10 µM (PC-3) | inhibition of growth at 10 µM (MCF7) | inhibition of growth at 10 µM (SK-OV-3) | inhibition of growth at 10 µM (SF-268) | inhibition of growth at 10 µM (SK-MEL-28) | inhibition of growth at 10 µM (MDA-MB-231) | inhibition of growth at 10 µM (HCC 2998) | inhibition of growth at 10 µM (IGROV-1) | inhibition of growth at 10 µM (OVCAR-4) | inhibition of growth at 10 µM (OVCAR-5) | inhibition of growth at 10 µM (HCT-116) | inhibition of growth at 10 µM (BT-549) | further results
1 | O=c1c2ccccc2nc(SCc2nnc(S)n2Cc2ccccc2)n1CCc1ccccc1 | < 10% | < 10% | < 10% | 12% | < 10% | < 10% | < 10% | < 10% | 12% | 27% | < 10% | < 10% | < 10% | 28% | < 10% | < 10% | < 10% | < 10% | 24% | < 10% | inhibition of growth at 10 µM (LOX IMVI): 14%; inhibition of growth at 10 µM (SN12C): < 10%; inhibition of growth at 10 µM (HT-29): < 10%; inhibition of growth at 10 µM (MDA-MB-435): < 10%; inhibition of growth at 10 µM (U-251): < 10%; inhibition of growth at 10 µM (M14): < 10%; inhibition of growth at 10 µM (ACHN): < 10%; inhibition of growth at 10 µM (SW-620): < 10%; inhibition of growth at 10 µM (SF-295): < 10%; inhibition of growth at 10 µM (KM12): < 10%; inhibition of growth at 10 µM (DU-145): < 10%; inhibition of growth at 10 µM (HCT-15): < 10%; inhibition of growth at 10 µM (TK-10): < 10%; inhibition of growth at 10 µM (COLO 205): < 10%
2 | CCn1c(S)nnc1CSc1nc2ccccc2c(=O)n1CCc1ccccc1 | < 10% | 11% | < 10% | 16% | < 10% | < 10% | 15% | 27% | 17% | 16% | < 10% | < 10% | < 10% | 18% | < 10% | < 10% | 15% | < 10% | 35% | 28% | inhibition of growth at 10 µM (LOX IMVI): 26%; inhibition of growth at 10 µM (SN12C): < 10%; inhibition of growth at 10 µM (HT-29): < 10%; inhibition of growth at 10 µM (MDA-MB-435): 16%; inhibition of growth at 10 µM (U-251): < 10%; inhibition of growth at 10 µM (M14): 12%; inhibition of growth at 10 µM (ACHN): 15%; inhibition of growth at 10 µM (SW-620): < 10%; inhibition of growth at 10 µM (SF-295): < 10%; inhibition of growth at 10 µM (KM12): < 10%; inhibition of growth at 10 µM (DU-145): < 10%; inhibition of growth at 10 µM (HCT-15): 12%; inhibition of growth at 10 µM (TK-10): < 10%; inhibition of growth at 10 µM (COLO 205): < 10%
3 | O=c1c2ccccc2nc(SCCN2CCCCC2)n1CCc1ccccc1 | < 10% | < 10% | < 10% | 13% | < 10% | < 10% | < 10% | < 10% | < 10% | 37% | < 10% | < 10% | < 10% | 34% | < 10% | 22% | 14% | 12% | 27% | 14% | inhibition of growth at 10 µM (LOX IMVI): 19%; inhibition of growth at 10 µM (SN12C): < 10%; inhibition of growth at 10 µM (HT-29): 70%; inhibition of growth at 10 µM (MDA-MB-435): < 10%; inhibition of growth at 10 µM (U-251): 14%; inhibition of growth at 10 µM (M14): < 10%; inhibition of growth at 10 µM (ACHN): < 10%; inhibition of growth at 10 µM (SW-620): 11%; inhibition of growth at 10 µM (SF-295): 13%; inhibition of growth at 10 µM (KM12): < 10%; inhibition of growth at 10 µM (DU-145): 11%; inhibition of growth at 10 µM (HCT-15): 20%; inhibition of growth at 10 µM (TK-10): < 10%; inhibition of growth at 10 µM (COLO 205): 25%
4 | O=c1c2ccccc2nc(SCc2nnc(S)n2-c2ccccc2)n1CCc1ccccc1 | < 10% | < 10% | < 10% | < 10% | < 10% | < 10% | < 10% | < 10% | 30% | 28% | < 10% | < 10% | < 10% | 20% | < 10% | 16% | < 10% | < 10% | < 10% | < 10% | inhibition of growth at 10 µM (LOX IMVI): < 10%; inhibition of growth at 10 µM (SN12C): < 10%; inhibition of growth at 10 µM (HT-29): < 10%; inhibition of growth at 10 µM (MDA-MB-435): < 10%; inhibition of growth at 10 µM (U-251): 11%; inhibition of growth at 10 µM (M14): < 10%; inhibition of growth at 10 µM (ACHN): < 10%; inhibition of growth at 10 µM (SW-620): < 10%; inhibition of growth at 10 µM (SF-295): 12%; inhibition of growth at 10 µM (KM12): < 10%; inhibition of growth at 10 µM (DU-145): < 10%; inhibition of growth at 10 µM (HCT-15): 25%; inhibition of growth at 10 µM (TK-10): < 10%; inhibition of growth at 10 µM (COLO 205): < 10%
